Reference: US20250177384A1, “CHROMANOL COMPOUNDS FOR TREATMENT OR PROPHYLAXIS OF AGEING-ASSOCIATED DISORDERS” (Sulfateq B.V., priority 2022, published 2025)

How the values were obtained:
[1] = test system: Ercc1-deficient mouse models; test: Persistent DNA damage in Ercc1-deficient mouse models; format: in vivo; details: no method or data given
Ercc1−/− (EC-KO) mice [2] = test: Renal function: urine creatinine, urine albumin, plasma creatinine after chronic treatment; format: in vivo
Method: (§1) EC-KO mice and corresponding littermates (LM) received either SUL138 treated (30 mg SUL138/kg BW/day) or vehicle treated (0.015% [v/v] ethanol) chow for 8 weeks (14-22 weeks of age).
At the age of 21 weeks, animals were put in metabolic cages. After 10 h of acclimatization, 24 h urine was collected. At the age of 22 weeks, mice were euthanized, urine, blood plasma and tissue were collected.
[…] levels in urine were measured in the samples collected at the age of 21 weeks and at the time euthanasia (22 weeks). QuantiChrom Creatinine Assay Kit (1:2 sample dilution) was used according to manufacturer's instructions.
Albumin levels in urine were measured in the samples collected at the time euthanasia (22 weeks). Mouse albumin ELISA kit ab108792 (1:400 sample dilution) was used according to manufacturer's instructions.
Blood plasma creatinine was measured in the samples collected at the time euthanasia (22 weeks). […]. QuantiChrom Creatinine Assay Kit […] was used according to manufacturer's instructions.

[3] = test system: thoracic aorta segments of EC-KO mice; test: Acute effect on endothelium-dependent relaxation (pre-incubation of aorta segments); details: pre-incubation 100 μM for 30 minutes
Method: (§2) Segments of thoracic aorta were isolated and mounted in wire-myograph containing Krebs Henseleit buffer (at 37° C., oxygenated with 95% O2 and 5% CO2) to assess endothelium-dependent (ED) relaxation.
(§3) A stable synthetic analog of the endoperoxide prostaglandin PGH2, namely U46619, was used for pre-constriction. Thoracic aorta segments were washed and subsequently pre-constricted with U46619 (30-60 nM final concentration; 75-100% of the response to 100 mM KCl), followed by a dose response curve with ED vasodilator acetylcholine (ACh) (10^−9-10^−5 M final concentration).
The acute effect of SUL138 was evaluated by pre-incubating with 100 μM for 30 minutes.

Ercc1−/− (EC-KO) mice [4] = test: Endothelium-dependent relaxation of thoracic aorta segments (wire-myograph) after chronic treatment; format: in vivo
Method: as §1, §2
Contraction of the thoracic aorta isolates was induced with 100 mM KCl (final concentration) to evaluate vessel viability.
as §3
To evaluate the contribution of different pathways to vasodilator response, segments were incubated with inhibitors for 15 minutes prior to pre-constriction with U46619. L-NAME (10^−4 M) was added to assess nitric oxide (NO) contribution to vasodilator response. L-NAME, apamin (100 nM) and TRAM-34 (10 μM) were added to assess ED hyperpolarization factor (EDHF) contribution to vasodilator response.

W1118 flies = test: Drosophila lifespan with compound added to the food; format: in vivo; details: for survival of flies versus controls: higher doses of 10, 100, 1000 μM in food, from larvae state until death, FIG. 1, FIG. 2; for lifespan of Drosophila: treatment via food
Method: […] flies were bred and housed at 25° C. with a 12 h:12 h light/dark-cycle. Flies were kept in vials containing approximately 5 mL of Bloomington food consisting of sucrose, yeast suspension, agar, […] and fresh yeast. Flies kept as a stock were flipped to fresh vials weekly. Food was stored at 18° C. and warmed at room temperature before use. SUL109 and SUL121 were used to assess the effect of chromanol compounds on the lifespan of the fly stocks. The compounds were independently tested. Either SUL109 or SUL121 were added to the food to a final concentration of 10 μM, 100 μM and 1000 μM. […] flies were anesthetized in small groups using CO2. Subsequently, flies were collected at a density of […] per tube. At day 10 and 11 eclosing adults were anesthetized and housed at a density of 20 males and females per tube. Ten vials were used per study condition (total of 100 males and 100 females). During the lifespan, flies were transferred onto new vials containing fresh food 3 times a week, and the number and sex of dead flies was recorded.

[5] = test system: accelerated aging animal models; details: chronic treatment; cited from earlier work

For `Cc1c(C)c2c(c(C)c1O)CC[C@@](C)(C(=O)N1CCN(CCO)CC1)O2` [SUL138, S-(6-hydroxy-2,5,7,8-tetramethylchroman-2-yl)(4-(2-hydroxyethyl)piperazin-1-yl)methanone], the “accumulation of persistent DNA damage” value [1] was “attenuation of the accumulation of persistent DNA damage”, the “albumin/creatinine ratio in urine” value (Ercc1−/− (EC-KO) mice [2]; EC-KO mice, 22 weeks, FIG. 8) was “significant improvement of albumin/creatinine ratios” and the “creatinine filtration (creatinine in 24 h urine)” value (Ercc1−/− (EC-KO) mice [2]; EC-KO mice, 24 h urine at 21 weeks, FIG. 10) was “significantly improved”. The “creatinine filtration (urine creatinine)” value (Ercc1−/− (EC-KO) mice [2]; EC-KO mice, urine at 22 weeks, FIG. 7) was “significantly improved creatinine filtration”, the “renal function (summary)” value (Ercc1−/− (EC-KO) mice [2]; Ercc1-deficient mouse models) was “protection of renal function” and the “ED relaxation after acute treatment” value [3] was “no effect on ED relaxation”. For the same compound, the “ED relaxation (acetylcholine response after U46619 pre-constriction)” value (Ercc1−/− (EC-KO) mice [4]; chronic treatment 30 mg/kg BW/day in chow for 8 weeks, EC-KO mice, compared to LM control levels, FIG. 3) was “restored ED relaxation”, the “pathway contribution to ACh response (EDHF-driven ED relaxation)” value (Ercc1−/− (EC-KO) mice [4]; chronic treatment, EC-KO mice, L-NAME curve, FIG. 6) was “increased EDHF-driven ED relaxation” and the “vascular function (summary)” value (Ercc1−/− (EC-KO) mice [4]; chronic treatment, isolated tissue from Ercc1-deficient mouse models) was “full preservation of vascular function through EDHF rescue”.

With `Cc1c(C)c2c(c(C)c1O)CCC(C)(C(=O)N1CCNCC1)O2` (stereo not drawn) [SUL121, (6-hydroxy-2,5,7,8-tetramethylchroman-2yl)(piperazin-1-yl)methanone] the “survival of flies versus controls” value (W1118 flies) was “better survival than the controls” and the “lifespan of Drosophila” value (W1118 flies) was “increased lifespan”.

With `Cc1c(C)c2c(c(C)c1O)CCC(C)(C(=O)N1CCN(CCO)CC1)O2` (stereo not drawn) [SUL109, (6-hydroxy-2,5,7,8-tetramethylchroman-2-yl)(4-(2-hydroxyethyl)piperazin-1-yl)methanone] the “survival of flies versus controls” value (W1118 flies) was “better survival than the controls” and the “lifespan of Drosophila” value (W1118 flies) was “increased lifespan”.

For `CCCCc1nc(Cl)c(CO)n1Cc1ccc(-c2ccccc2-c2nn[nH]n2)cc1` [losartan], the “endothelial dependent relaxation / vasomotor (vasodilator) function” value [5] is given as “did not have a beneficial effect”.

For `CCCc1nn(C)c2c(=O)[nH]c(-c3cc(S(=O)(=O)N4CCN(C)CC4)ccc3OCC)nc12` [sildenafil], the “endothelial dependent relaxation / vasomotor (vasodilator) function” value [5] is listed as “not able to improve endothelial dependent relaxation”.
